According to patent US11802107B2, “Compounds and methods of use” (Signum Biosciences, Inc., priority 2017, dated 2023):
Converted amounts (≈) assume the structure as drawn. Where two headings read alike, the source gives them in different places.

Assays:
Balb/C mice = assay: Oxazolone-induced delayed-type hypersensitivity (DTH) in vivo model; details: Mus musculus, topical to ears @ 3% w/v, 24 hours, read-out: Edema % inhibition
Procedure: Inbred male Balb/C mice were purchased from Hilltop Lab Animals (Scottdale, PA) and were used between 8 and 10 weeks of age. Mice backs were shaved and 100 μl of 3% v/v Oxazolone (Sigma Aldrich, Cat No. E0753) in acetone/olive oil (4:1) was applied to dorsal skin for sensitization. On Day 7, ears were challenged with 0.5% v/v Oxazolone and 30 minutes after challenge, test materials at 3% w/v were applied to ears (10 μl applied both to the dorsal and ventral surfaces of the mouse ear using a solvent pipette) and 24 hours later, skin thickness (edema) was measured. A 6-mm punch biopsy was obtained from each ear, snap frozen in liquid nitrogen. Ear skin biopsy punches were pulverized using FastPrep®-24 Biopulverizer (MP Biomedical, CatNo. 116004500) and Lysing Matrix A tubes (CatNo. 16910050). Protein extracts were obtained using 500 μL/tissue of cold T-PER buffer (ThermoFisher, CatNo. 78510) with Protease inhibitors (Sigma-Aldich, CatNo. 58820-20TAB). Soluble protein fractions were used to measure cytokine levels (IL-4) using ELISA kit (BD Biosciences® #555232). Results were represented as percent of inhibition relative to unsensitized and sensitized-only treated animals. Vehicle for presently disclosed compounds was 60:40 H2O:EtOH and 1:1 Acetone:EtOH for AN2718. (n=5-15 animals per treatment group).
Compound C was further analyzed at various dosages against 0.4 mg/ear of […] by the above protocol, data representing the average±S.E. of cumulative data from three independent experiments (n=12-15 mice per group) is shown below: […]

P. acnes (ATCC 6919) [1] = assay: Minimal inhibitory concentration (MIC) against P. acnes; format: cell-based, Propionibacterium acnes; details: Cutibacterium acnes, ATCC6919, 72 h, P. acnes ATCC 6919, 10^6 CFU/mL, read-out: MIC
Procedure: To determine minimal inhibitory concentration (MIC), reagents were dissolved in vehicle (5% v/v) and then added to bacteria suspension. P. acnes (ATCC® 6919TM) at 10^6 CFU/mL was incubated with test materials at the concentrations of two-fold serial dilution (0.25-500 μg/mL) and incubated for 72 hours (P. acnes).

P. acnes (ATCC 6919) [2] = assay: Minimal bactericidal concentration (MBC) against P. acnes; format: cell-based, Propionibacterium acnes; details: Cutibacterium acnes, ATCC6919; P. acnes 10^7 CFU/mL, in PBS, anaerobic conditions
IL17A (IL-17A) = assay: P. acnes-induced IL-17 gene on human PBMCs (qPCR); format: cell-based; details: PBMC, PBMCs + live P. acnes 1:1, test material 30 PM, 24 hours
Procedure: (§1) Cryopreserved human Peripheral Blood Mononuclear cells (PBMCs) from healthy adult donors were obtained from Zen Bio, Inc (Cat No. SER-PBMC-F). Cells were cultured in 12-well plates with lymphocyte media (Cat No. LYMPH-1) and incubated with test materials ([…]) and live P. acnes (ATCC® 6919TM) at 1:1 PBMC: P. acnes bacteria ratio for 24 hours at 37° C. and 5% CO2. After incubation, cell media supernatants were harvested and used to measure pro-inflammatory cytokine levels (IL-8, TNF-α, IL-1b, IL-17) using ELISA kits (BD Biosciences® #557966, #555212, #555244; R&D Systems® #DY317). Total RNA was extracted from cells using the RNAqueous® kit (Ambion®; Cat No. 1912) and cDNA was obtained using the High Capacity RNA-to-cDNA kit (Applied Biosystems®; Cat No. 4387406). Quantitative PCR (qPCR) was performed using the TaqMan® Fast Advanced Master Mix (Applied Biosystems®; Cat No. 4444556) and specific TaqMan®-probes human gene primers CXCL8 (IL-8), IL1B (IL-1b), TNF (TNF-α), IL17A (IL-17A) and GAPDH to calculate the relative gene fold expression change per treatment. Gene expression analysis was performed using the comparative Ct method (also known as the 2-[delta][delta]Ct) approach by comparing the Ct values of P. acnes-only treated cells with the untreated samples and normalized to GAPDH gene expression as endogenous housekeeping gene.

IL1B (IL-1b) = assay: P. acnes-induced IL-1b gene on human PBMCs (qPCR); format: cell-based; details: PBMC, PBMCs + live P. acnes 1:1, test material 30 PM, 24 hours
Procedure: as §1

TNF (TNF-α) = assay: P. acnes-induced TNF-α gene on human PBMCs (qPCR); format: cell-based; details: PBMC, PBMCs + live P. acnes 1:1, test material 30 PM, 24 hours, read-out: TNFa-Gene % inhibition
Procedure: as §1

CXCL8 (IL-8) = assay: P. acnes-induced IL-8 gene on human PBMCs (qPCR); format: cell-based; details: PBMC, PBMCs + live P. acnes 1:1, test material 30 PM, 24 hours
Procedure: as §1

IL-5 = assay: T-cell receptor (anti-CD3/CD28)-induced IL-5 on PBMCs; format: cell-based; details: Homo sapiens, PBMC, anti-CD3/CD28 beads, 24 hours, ELISA, read-out: TCR-PBMCs IL-5 Protein IC50
Procedure: (§2) Cryopreserved human Peripheral Blood Mononuclear cells (PBMCs) from healthy adult donors were obtained from Zen Bio, Inc (Cat No. SER-PBMC-F). Cells were cultured in 96-well plates with lymphocyte media (Cat No. LYMPH-1) and were pre-treated with test materials (≤100 μM) for 2 hours and later co-treated with test materials and anti-CD3/CD28 beads (Thermo-Fisher; Cat No. 11131D) at 1:0.4 PBMC:bead ratio for 24 hours at 37° C. and 5% CO2. After incubation, cell media supernatants were harvested and used to measure cytokine levels (IL-4, IL-5, IL-10) using ELISA kits (BD Biosciences® #555194, #555157; R&D Systems® #DY317). Results were represented as percent of inhibition relative to untreated and anti-CD3/CD28 beads-only treated cells. IC50 values were determined by non-linear regression analysis using the four-parameter logistic equation.

IL-10 = assay: T-cell receptor (anti-CD3/CD28)-induced IL-10 on PBMCs; format: cell-based; details: Homo sapiens, PBMC, anti-CD3/CD28 beads, 24 hours, ELISA, read-out: TCR-PBMCs IL-10 Protein IC50
Procedure: as §2

IL-4 = assay: T-cell receptor (anti-CD3/CD28)-induced IL-4 on PBMCs; format: cell-based; details: Homo sapiens, PBMC, anti-CD3/CD28 beads, 24 hours, ELISA, read-out: TCR-PBMCs IL-4 Protein IC50
Procedure: as §2

IL-8 = assay: P. acnes-induced IL-8 on human NHEKs; format: cell-based; details: NHEK, live P. acnes 10^7 CFU, 24 hours, ELISA, read-out: P. acnes-NHEK IL-8 Protein IC50
Procedure: Normal human epidermal keratinocytes (NHEKs) from neonatal donors were obtained from Thermo-Fisher (Cat No. C-001-5C). Cells were cultured in 96-well plates for 24 hours with EpiLife media (Cat No. MEPI500CA) supplemented with keratinocytes growth supplement (Cat No. S0015). On Day 2, media was removed and replaced with supplement-depleted medium for 24 hours. On Day 3, media was removed and cells were pre-treated with test materials ([…]) for 2 hours and later co-treated with test materials and live P. acnes (ATCC® 6919TM) at 10^7 CFU for 24 hours at 37° C. and 5% CO2. After incubation, cell media supernatants were harvested and used to measure pro-inflammatory cytokine levels (IL-8) using ELISA kits (BD Biosciences® #555244). Results were represented as percent of inhibition relative to untreated and P. acnes-only treated cells. IC50 values were determined by non-linear regression analysis using the four-parameter logistic equation.

| SMILES | inhibition in vivo at 3 % strength (Balb/C mice) [%] | MIC (P. acnes (ATCC 6919) [1]) [µg/mL] | further results |
| --- | --- | --- | --- |
| C/C(=C\CSCC(NC(=O)N1CCC(C(=O)O)CC1)C(=O)O)CCCC(C)CCCC(C)CCCC(C)C (stereo not shown) [Y] | 0 | 50 (≈ 90.1 µM) |  |
| C/C(=C\CSCC(Nc1ccnc(N(C)CC(=O)O)n1)C(=O)O)CCCC(C)CCCC(C)CCCC(C)C (stereo not shown) [BM] |  | 6 (≈ 10.6 µM) | MBC (P. acnes (ATCC 6919) [2]): > 62 µg/mL |
| CC(=O)NC(CC(=O)NC(CSC/C=C(\C)CCCC(C)CCCC(C)CCCC(C)C)C(=O)O)C(=O)O (stereo not shown) [Q] |  | 125 (≈ 224 µM) | inhibition at 30 pM (IL17A (IL-17A)): 72%; inhibition at 30 pM (IL1B (IL-1b)): 59%; inhibition at 30 pM (TNF (TNF-α)): 0%; inhibition at 30 pM (CXCL8 (IL-8)): 14% |
| C/C(=C\CSCC(NC(=O)CCCCCCCCC(=O)O)C(=O)O)CCCC(C)CCCC(C)CCCC(C)C (stereo not shown) [D] | 53 | > 250 | IC50 (IL-5): > 100 µM; IC50 (IL-10): 100 µM; IC50 (IL-4): > 100 µM |
| C/C(=C\CSCC(NC(=O)c1cc(O)c(O)c(O)c1)C(=O)O)CCCC(C)CCCC(C)CCCC(C)C (stereo not shown) [V] | 5 | > 4 | inhibition at 30 pM (IL17A (IL-17A)): 0%; IC50 (IL-8; Homo sapiens): 3 nM; MBC (P. acnes (ATCC 6919) [2]): > 25 µg/mL; inhibition at 30 pM (IL1B (IL-1b)): 83%; inhibition at 30 pM (TNF (TNF-α)): 0%; inhibition at 30 pM (CXCL8 (IL-8)): 46% |
| CC(=O)NC(COC(C)(C)C)C(=O)NC(CSC/C=C(\C)CCCC(C)CCCC(C)CCCC(C)C)C(=O)O (stereo not shown) [R] | 24 | > 25 |  |
| C/C(=C\CSCC(NC(=O)c1ccc(C(=O)O)cc1)C(=O)O)CCCC(C)CCCC(C)CCCC(C)C (stereo not shown) [X] | 15 | > 25 |  |
| C/C(=C\CSCC(NC(=O)c1ccc(O)c(C(=O)O)c1)C(=O)O)CCCC(C)CCCC(C)CCCC(C)C (stereo not shown) [H] | 14 | 6 (≈ 10.6 µM) | IC50 (IL-8; Homo sapiens): 20 nM |
| CCN(CC(=O)O)C(=O)NC(CSC/C=C(\C)CCCC(C)CCCC(C)CCCC(C)C)C(=O)O (stereo not shown) [I] | 36 | > 16 | inhibition at 30 pM (IL17A (IL-17A)): 7%; inhibition at 30 pM (IL1B (IL-1b)): 86%; inhibition at 30 pM (TNF (TNF-α)): 0%; inhibition at 30 pM (CXCL8 (IL-8)): 52% |
| C/C(=C\CSCC(Nc1ncc(C(=O)O)cn1)C(=O)O)CCCC(C)CCCC(C)CCCC(C)C (stereo not shown) [BH] |  | 4 (≈ 7.67 µM) | MBC (P. acnes (ATCC 6919) [2]): 16 µg/mL (≈ 30.7 µM) |
| CSCCC(NC(C)=O)C(=O)NC(CSC/C=C(\C)CCCC(C)CCCC(C)CCCC(C)C)C(=O)O (stereo not shown) [Compound B] | 48 | 24 (≈ 41.9 µM) | IC50 (IL-5): 50 µM; IC50 (IL-10): 46 µM; IC50 (IL-4): 52 µM |
| C/C(=C\CSCC(NC(=O)CCC(N)=O)C(=O)O)CCCC(C)CCCC(C)CCCC(C)C (stereo not shown) [F] |  | 6 (≈ 12 µM) | IC50 (IL-8; Homo sapiens): 1690 nM |
| CC(=O)N[C@@H](CC(=O)O)C(=O)NC(CSC/C=C(\C)CCCC(C)CCCC(C)CCCC(C)C)C(=O)O (stereo partly shown) [J] | 10 | 32 (≈ 57.5 µM) |  |
| C/C(=C\CSC[C@H](Nc1ncc(C(=O)O)c(C)n1)C(=O)O)CCCC(C)CCCC(C)CCCC(C)C (stereo partly shown) [BL] |  | 7 (≈ 13.1 µM) | MBC (P. acnes (ATCC 6919) [2]): > 62 µg/mL |
| C/C(=C\CSCC(NC(=O)C(O)(CC(=O)O)CC(=O)O)C(=O)O)CCCC(C)CCCC(C)CCCC(C)C (stereo not shown) [U] | 18 | 19 (≈ 33.1 µM) |  |
| C/C(=C\CSCC(N/C(=N/C#N)N(C)CC(=O)O)C(=O)O)CCCC(C)CCCC(C)CCCC(C)C (stereo not shown) [W] | 22 | 62 (≈ 115 µM) |  |
| C/C(=C\CSCC(Nc1nccc(N(C)CC(=O)O)n1)C(=O)O)CCCC(C)CCCC(C)CCCC(C)C (stereo not shown) [BN] |  | 8 (≈ 14.2 µM) | MBC (P. acnes (ATCC 6919) [2]): 31 µg/mL (≈ 54.9 µM) |
| C[C@H]1C[C@H]2[C@@H]3CCC4=CC(=O)C=C[C@]4(C)[C@@]3(F)[C@@H](O)C[C@]2(C)[C@@]1(O)C(=O)CCl [Clobetasol, reference compound] |  |  | IC50 (IL-8): 33 nM |
